# Source: ChEMBL document CHEMBL2150911, “Charting, navigating, and populating natural product chemical space for drug discovery” (J Med Chem, 2012)
# Assays:
# [1] = biological target: T1, Polyunsaturated fatty acid 5-lipoxygenase (Homo sapiens, UniProt P09917); assay: Inhibition of 5-LOX
# T1 sequence (P09917 whole entry): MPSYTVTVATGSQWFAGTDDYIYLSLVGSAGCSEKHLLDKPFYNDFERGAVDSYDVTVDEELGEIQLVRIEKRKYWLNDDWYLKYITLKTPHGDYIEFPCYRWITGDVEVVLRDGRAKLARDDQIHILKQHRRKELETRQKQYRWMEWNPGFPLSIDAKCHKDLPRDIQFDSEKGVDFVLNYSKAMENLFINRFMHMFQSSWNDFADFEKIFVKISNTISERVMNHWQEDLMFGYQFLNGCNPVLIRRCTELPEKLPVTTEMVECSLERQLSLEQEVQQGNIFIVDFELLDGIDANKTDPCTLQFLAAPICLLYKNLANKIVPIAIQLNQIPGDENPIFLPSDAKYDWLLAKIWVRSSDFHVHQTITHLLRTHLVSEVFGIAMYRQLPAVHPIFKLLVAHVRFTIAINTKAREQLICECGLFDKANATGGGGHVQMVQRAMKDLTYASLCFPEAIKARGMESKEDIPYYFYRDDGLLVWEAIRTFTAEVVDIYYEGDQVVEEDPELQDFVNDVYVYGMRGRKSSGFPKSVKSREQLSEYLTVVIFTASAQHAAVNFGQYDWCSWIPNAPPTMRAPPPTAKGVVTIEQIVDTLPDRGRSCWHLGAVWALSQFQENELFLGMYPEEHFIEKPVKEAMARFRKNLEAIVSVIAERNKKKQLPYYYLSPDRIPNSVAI
# [2] = biological target: T2, M-phase inducer phosphatase 1 (Homo sapiens, UniProt P30304); assay: Inhibition of His-tagged Cdc25A expressed in the Escherichia coli BL21(DE3) using p-nitrophenyl phosphate as substrate for 80 mins by spectrophotometry
# T2 sequence (P30304 whole entry): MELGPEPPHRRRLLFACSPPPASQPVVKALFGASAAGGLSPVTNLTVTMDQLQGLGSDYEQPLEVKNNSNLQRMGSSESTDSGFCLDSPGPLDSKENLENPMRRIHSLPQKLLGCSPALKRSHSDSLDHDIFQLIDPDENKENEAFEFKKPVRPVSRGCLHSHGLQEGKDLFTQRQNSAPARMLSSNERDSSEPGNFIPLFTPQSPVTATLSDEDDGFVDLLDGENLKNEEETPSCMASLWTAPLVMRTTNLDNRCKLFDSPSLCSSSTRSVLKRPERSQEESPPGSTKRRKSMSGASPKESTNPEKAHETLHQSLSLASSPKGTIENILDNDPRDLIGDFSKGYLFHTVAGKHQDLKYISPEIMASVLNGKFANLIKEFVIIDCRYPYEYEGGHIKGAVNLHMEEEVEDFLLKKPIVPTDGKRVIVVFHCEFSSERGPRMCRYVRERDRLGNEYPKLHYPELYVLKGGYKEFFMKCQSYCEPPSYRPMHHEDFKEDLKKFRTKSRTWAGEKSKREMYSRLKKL
IC50 [1],IC50 [2],SMILES
7.5 µM,–,c1ccc(COc2ccc3ccccc3c2)cc1
1.5 µM,–,COC1(c2cccc(COc3ccc4ccccc4c3)c2)CCOCC1
0.36 µM,–,CC(c1ccc(OCc2ccccc2)cc1)N(O)C(N)=O (centres undefined)
–,22.3 µM,COC(=O)[C@@H]1[C@H]2C[C@H]3c4[nH]c5ccccc5c4CCN3C[C@@H]2CC[C@@H]1O [YOHIMBINE]
